Source: publication PMC12916490 (Molecular Psychiatry, 2025)
pEC50, pKi: −log10 of the molar value.

Columns and labels:
[1] = target: h5-HT2A (Homo sapiens, UniProt P28223); experiment: IP1 formation (Gαq-mediated signaling), h5-HT2A; format: cell-based; design: expressed in transfected cells; host or cells: HEK 293 cells (membrane preparation); conditions: for Emax: read-out: IP1 formation Emax h5-HT2A (95% CI)
[2] = target: T1, hα2A (Homo sapiens, UniProt P08913); experiment: Radioligand binding, hα2A receptor ([3H]rauwolscine)
T1 construct: expressed in transfected cells; host or cells: Chinese hamster lung cells (membrane preparation)
T1 sequence (P08913 1-465): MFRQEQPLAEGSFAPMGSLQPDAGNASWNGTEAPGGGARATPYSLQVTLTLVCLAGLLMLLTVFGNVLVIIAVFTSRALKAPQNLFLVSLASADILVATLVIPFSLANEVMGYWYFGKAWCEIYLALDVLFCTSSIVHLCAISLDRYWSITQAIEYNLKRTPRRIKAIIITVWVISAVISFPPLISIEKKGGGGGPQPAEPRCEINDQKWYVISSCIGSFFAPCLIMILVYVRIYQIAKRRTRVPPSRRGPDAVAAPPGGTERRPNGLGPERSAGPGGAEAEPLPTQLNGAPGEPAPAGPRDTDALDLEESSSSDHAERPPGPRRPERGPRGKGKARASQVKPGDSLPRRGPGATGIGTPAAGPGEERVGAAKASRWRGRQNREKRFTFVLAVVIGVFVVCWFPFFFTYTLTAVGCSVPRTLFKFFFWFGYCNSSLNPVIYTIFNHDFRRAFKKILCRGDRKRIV
Experimental: (§1) Binding affinities at human monoamine receptors and transporters were assessed as previously reported. A detailed description of the methodology is provided in the Supplementary information.
(§2) Data analysis was performed with Prism software (version 10.1.2, GraphPad Software, Boston, MA, USA). The IC50 values from the radioligand binding assays were determined by nonlinear regression, using three independent concentration-response curves fitted to a one-site model. The Cheng-Prusoff equation was used to calculate Kᵢ values for the competing ligands. EC50 values were determined by applying nonlinear regression to concentration-response curves. Bias factors (β) were calculated based on the relative intrinsic activity approach. More detailed information can be found in the Supplementary information. Mean values for total number of HTR, change in body temperature from pre to post session (Δ°C), and total distance traveled (cm) for each drug dose were compared (p < 0.05) via Welch’s ANOVA with Dunnett’s T3 post test, comparing all doses to respective vehicle controls (0 mg/kg). Welch’s ANOVA with Dunnett’s T3 post test was also used to compare drug concentrations, but the data were compared to DOM in this case. Dose–response relationships for HTR and locomotor activities were plotted using bell-shaped curve fits, while temperature change data were plotted using four-parameter non-linear regression curve fits. The ascending phase of the HTR curve for each drug was used to determine ED50 potency values from four parameter non-linear regression fits. For combined DOM and DOAM administration, the plasma, brain tissue, and brain dialysate drug concentrations were compared using paired t-tests (p < 0.05). Ratios were compared using Holm-Sidak’s post hoc test following a repeated-measures one-way ANOVA (F (1.709, 6.835) = 70.80; p < 0.0001).
(§3) 3.1 Assessment of receptor and transporter binding affinities
(§4) Membrane preparations were prepared from cells transfected with the respective target. The membrane preparations were then incubated with selective radioligands at concentrations equal to the corresponding Kd and displacement of the ligand by the drugs was measured. The difference between total binding and nonspecific binding (determined in the presence of selective competitors) was defined as specific binding of the radioligand to the target receptor. The following transfected cell lines were used for the binding assays: HEK 293 cells (h5-HT1A, h5-HT2A, h5-HT2B, h5-HT2C, and hD2 receptors, hDAT, hNET, and hSERT), Chinese hamster ovary cells (hα 1A receptor), and Chinese hamster lung cells (hα 2A receptor).
(§5) 3.1.1 Membrane preparations for receptor and transporter binding
(§6) For producing membrane preparations, transfected cells were harvested with trypsin/EDTA, washed with ice-cold phosphate buffered saline, and then pelleted by centrifugation (210 × g for 5 min at 4 °C). The pellets were frozen and stored at -80 °C until use. Frozen pellets were resuspended in 20 m L (receptor binding) or 400 m L (transporter binding) buffer (20 mM HEPES -NaOH, 10 mM EDTA, pH 7.4), and homogenized at 1,100 × g for 20 s (receptor binding) or 560 × g for 15 s (transporter binding); the homogenates were then centrifuged at 48,000 × g for 30 min at 4 °C. For receptor binding assays, the supernatants were discarded and the pellets were resuspended in 20 mL buffer (20 mM HEPES-NaOH, 0.1 mM EDTA, pH 7.4) and homogenized at 1 ,100 × g for 20 s. Centrifugation and discarding of the supernatant were repeated once, and the final pellet was then resuspended in buffer and homogenized.
(§7) 3.1.2 Serotonin 5-HT1A and 5-HT2A receptor binding
(§8) Competitive binding at the h5-HT1A and h5-HT2A receptor was determined using 0.90 nM [ 3H]8-hydroxy-2-(di-n-propylamine)tetralin ([ 3H]8-OH-DPAT; h5-HT1A receptor agonist) and 0.40 nM [3H]ketanserin (h5-HT2 receptor antagonist) as radioligands. The density and affinity of [ 3H]8-OH-DPAT […]

[3] = target: T2, hα1A (Homo sapiens, UniProt P35348); experiment: Radioligand binding, hα1A receptor ([3H]prazosin)
T2 construct: expressed in transfected cells; host or cells: Chinese hamster ovary cells (membrane preparation)
T2 sequence (P35348 1-466): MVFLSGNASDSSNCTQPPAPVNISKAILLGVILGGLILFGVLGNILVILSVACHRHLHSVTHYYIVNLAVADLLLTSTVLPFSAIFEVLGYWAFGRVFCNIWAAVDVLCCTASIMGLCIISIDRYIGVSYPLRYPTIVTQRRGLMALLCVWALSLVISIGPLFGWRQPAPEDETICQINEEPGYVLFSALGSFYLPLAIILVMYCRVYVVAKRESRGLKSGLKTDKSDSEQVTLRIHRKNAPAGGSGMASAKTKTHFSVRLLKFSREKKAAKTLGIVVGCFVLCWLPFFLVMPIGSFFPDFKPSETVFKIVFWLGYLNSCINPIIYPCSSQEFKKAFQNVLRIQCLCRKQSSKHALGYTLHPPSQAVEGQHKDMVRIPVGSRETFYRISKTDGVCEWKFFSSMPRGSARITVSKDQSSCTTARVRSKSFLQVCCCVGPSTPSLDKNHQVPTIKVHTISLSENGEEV
Experimental: as §1, §2, §3, §4, §5, §6, §7, §8

[4] = target: h5-HT2B (Homo sapiens, UniProt P41595); experiment: Radioligand binding, h5-HT2B receptor ([3H]LSD)
Sequence of h5-HT2B (P41595 whole entry): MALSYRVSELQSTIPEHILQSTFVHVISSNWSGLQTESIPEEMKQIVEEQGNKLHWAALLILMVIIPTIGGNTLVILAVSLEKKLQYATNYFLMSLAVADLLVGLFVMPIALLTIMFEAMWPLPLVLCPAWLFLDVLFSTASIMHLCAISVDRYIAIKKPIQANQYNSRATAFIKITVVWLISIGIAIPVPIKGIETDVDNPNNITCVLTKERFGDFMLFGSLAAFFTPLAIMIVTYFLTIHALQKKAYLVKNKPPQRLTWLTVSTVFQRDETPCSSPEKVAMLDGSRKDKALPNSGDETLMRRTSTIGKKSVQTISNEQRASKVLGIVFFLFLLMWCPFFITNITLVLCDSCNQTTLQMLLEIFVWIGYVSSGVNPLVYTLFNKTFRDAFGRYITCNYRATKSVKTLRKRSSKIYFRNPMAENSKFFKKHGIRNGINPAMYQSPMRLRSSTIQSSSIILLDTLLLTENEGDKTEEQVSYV

Sequence of h5-HT2A (P28223 whole entry, looked up): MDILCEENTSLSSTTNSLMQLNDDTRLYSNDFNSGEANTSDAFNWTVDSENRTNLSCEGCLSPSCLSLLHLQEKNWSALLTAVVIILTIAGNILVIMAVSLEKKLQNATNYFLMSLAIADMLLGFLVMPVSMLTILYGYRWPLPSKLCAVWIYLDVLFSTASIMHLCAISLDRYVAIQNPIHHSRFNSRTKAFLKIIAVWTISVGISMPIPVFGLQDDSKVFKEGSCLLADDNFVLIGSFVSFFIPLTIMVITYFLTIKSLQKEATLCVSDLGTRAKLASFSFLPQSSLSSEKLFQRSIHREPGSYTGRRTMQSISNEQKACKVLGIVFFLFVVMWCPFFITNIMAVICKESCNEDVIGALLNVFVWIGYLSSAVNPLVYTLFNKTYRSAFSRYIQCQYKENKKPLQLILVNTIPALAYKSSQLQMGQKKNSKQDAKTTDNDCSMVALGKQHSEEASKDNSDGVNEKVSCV

Compound	Agonist type for Gαq signaling at the 5-HT2A receptor [1]	pEC50 [1]	Emax [1]	pKi [2]	pKi [3]	pKi [4]
CCc1cc(OC)c(CC(C)N)cc1OC (stereo not drawn) [DOET, 4-ethyl-2,5-dimethoxyamphetamine]	high efficacy partial agonists	7.92	93%	< 5.30	5.40	6.76
COc1cc(CC(C)N)c(OC)cc1C (stereo not drawn) [DOM, 4-methyl-2,5-dimethoxyamphetamine]	high efficacy partial agonists	7.68	92%	< 5.30	5.13	6.83
CCCc1cc(OC)c(CC(C)N)cc1OC.Cl (stereo not drawn) [DOPR, 4-propyl-2,5-dimethoxyamphetamine hydrochloride]	–	8.72	96%	6.29	5.16	6.90
CCCCc1cc(OC)c(CC(C)N)cc1OC (stereo not drawn) [DOBU, 4-butyl-2,5-dimethoxyamphetamine]	high efficacy partial agonists	8.55	90%	5.77	5.68	6.79
CCCCCc1cc(OC)c(CC(C)N)cc1OC (stereo not drawn) [DOAM, 4-amyl-2,5-dimethoxyamphetamine]	high efficacy partial agonists	8.09	83%	5.64	5.60	7.01
COc1ccc(OC)c(CC(C)N)c1.Cl (stereo not drawn) [2,5-DMA, 2,5-Dimethoxyamphetamine hydrochloride]	–	–	99%	5.36	5.27	5.29
